Data: patent US5236942A, “5-aryl-4-alkyl-3H-1,2,4-triazole-3-thiones useful in the treatment of Altzheimer's dementia” (Merrell Dow Pharmaceuticals Inc., priority 1992, dated 1993)
Where two headings read alike, the source gives them in different places.

What was measured:
[1] = tested on: scopolamine-induced memory deficit in rats; assay: Working memory in the T-maze, rats treated with scopolamine; type: in vivo, Male Sprague-Dawley rats; details: for Number of errors (12 = chance response), T-maze: 24 trials, mean ± SEM, n = 12
Procedure: (§1) The maze used has the shape of a T with alleys 16 cm wide and side walls 20 cm high, the main arm being 65 cm long and the two side arms 45 cm long. Male Sprague-Dawleyrats are maintained on a 23 hour food deprivation schedule and are tested each day (Monday-Friday), each trial in the maze consisting of two runs. The rat starts at the end of the main arm and runs to the choice point where it must turn either left or right. The first is a forced run where one arm of the T-maze has been blocked off at the choice point. The remaining arm has a bowl of sweetened condensed milk as reward. On the second run the rat has a free choice of arms and learns by experience that food reward is to be found down the arm not visited on the first run. Trials are run at 30-second intervals, and the arm choice on the forced run is varied at random between trials. Arm entry is defined by the rat's placing all four paws in the arm, and incorrect selection of the arm is scored as an error. Noncompleted trials, where the rat has not made a choice within 3 minutes, are included as errors.5-(3-Fluorophenyl)-2,4-dimethyl-3H-1,2,4-triazole-3-thione is administered one hour before the first trial of each session. Impairment of performance is achieved for testing the compound of this invention in two different ways.
In the trials summarized in Table 2, the amnestic muscarinic antagonist scopolamine is administered subcutaneously at a dose of 0.15 mg/kg 15-minutes before the first trial, and there is a delay of 5-10 seconds after the forced run before the second run of the trial. […] All values are expressed as the mean number of errors per block of twenty-four trials with groups of 12 animals±the standard error of the mean. For this test, the number of errors expected by random response, i.e., the selection of the correct arm 50% of the time, is 12.

[2] = tested on: high affinity choline uptake (HACU); details: cited from earlier work; for effect on HACU: acute administration i.p.; for effect on cortical or hippocampal HACU: after in vivo administration
[3] = tested on: carrier that mediates choline transport ([3H] hemicholinium-3 binding in rat brain membranes); assay: [3H] hemicholinium-3 binding in rat brain membranes (cortex) after i.p. dosing of rats; parameters: species or system Male Sprague-Dawley rats; details: for Bmax ± SEM of [3H] hemicholinium-3 binding / Kd: rat brain cortex; for Kd: Kd of the radioligand, read-out: Kd ± SEM of [3H] hemicholinium-3 binding
Description: Another measure of cholinergic activity is the binding of the radioligand [^3 H] hemicholinium-3, ([^3 H] HC-3) which labels the carrier that mediates choline transport. […] Therefore, the stimulation of [^3 H] HC-3 binding in vitro after treatment with drugs in vivo is also a marker for increased cholinergic activity, predictive of enhanced cognition in treated animals.
The pharmacological properties of these compounds as enhancers of memory and cognition and their relative potencies may be measured through their effect on neuro-transmitters in the brain. Since drugs that block GABA inhibition in the cholinergic neurons of the basal forebrain nuclei will stimulate cholinergic firing, thus stimulating memory, the capacity of the drugs to enhance cognition can be assessed by measuring the increase in cholinergic firing rate. The increase in cholinergic firing rate is measured indirectly by measuring choline uptake or [^3 H] hemicholinium-3 binding in brain cells taken from treated animals.
To test for [^3 H] hemicholinium-3 binding in brain cells from the brain cortex, drugs were dissolved in saline by sonication. Male Sprague-Dawley rats were dosed i.p. and sacrificed by decapitation 60 min after injection. The brains were removed and dissected, and tissue was homogenized in 20 volumes of ice-cold buffer and stored frozen until assayed. Binding was measured by incubating the tissue with varying concentrations of [^3 H]hemicholinium-3 in an isotonic Tris buffer (pH 7.4) for 60 min at room temperature. The incubation was terminated by rapid filtration through Whatman GF/B filters. After drying, the filters were placed in scintillation cocktail and radioactivity was determined using a Beckman scintillation counter. In two experiments, the values for the Kd and Bmax were determined by nonlinear curve-fitting and the average values for samples of 3 or more animals reported.

hippocampal slice = assay: Electrophysiological assay of long term potentiation of the hippocampal slice
Description: (§2) Experiments also compared 5-(3-fluorophenyl)-2,4-dimethyl-3H-1,2,4-triazole-3-thione, a compound of formula I, with a series of β-carbolines in an electrophysiological assay system involving long term potentiation of the hippocampal slice.

[4] = tested on: time dependent memory deficit in rats; assay: Working memory in the T-maze, rats with 0- or 60-second delay; type: in vivo, Male Sprague-Dawley rats; details: for Number of errors (5 = chance response), 0-Second Delay / Number of errors (5 = chance response), 60-Second Delay: ten trials, mean ± SEM, n = 12
Procedure: as §1, with “The activity of these compounds in enhancing memory can also be confirmed in experiments that study working memory in rats by evaluating the acquisition of alternation behavior in a T-maze. The maze” for “The maze”, “an error. […] Impairment of” for “an error. Noncompleted trials, where the rat has not made a choice within 3 minutes, are included as errors.5-(3-Fluorophenyl)-2,4-dimethyl-3H-1,2,4-triazole-3-thione is administered one hour before the first trial of each session. Impairment of”, “different ways. […] The table compares the number of incorrect responses by rats tested in trials wherein there is no delay after the forced run and trials wherein there is a 60-second delay. […] For this test, the number of errors expected by random response, i.e., the selection of the correct arm 50% of the time, is 5.” for “different ways.”

benzodiazepine receptor = assay: Inverse agonism at the benzodiazepine receptor, in the hippocampal slice tests; type: cell-based; details: in these tests
Description: as §2

memory in mice = details: versus normal vehicle-treated control mice; cited from earlier work
[5] = tested on: hippocampal high affinity choline uptake; details: mice; cited from earlier work
[6] = 25 mg/kg i.p., n = 3, 60 min after injection
[7] = 25 mg/kg i.p., n = 3, vs saline (Bmax 11.9)
[8] = 1 mg/kg i.p., n = 4, 60 min after injection
[9] = 2.5 mg/kg i.p., n = 4, 60 min after injection
[10] = higher concentrations / high doses
[11] = 5 mg/kg i.p., n = 7, 60 min after injection

CN1[C@@H]2C[C@@H](OC(=O)[C@H](CO)c3ccccc3)C[C@H]1[C@@H]1O[C@@H]12 [Scopolamine, reference compound]
Number of errors (12 = chance response), T-maze ([1]; scopolamine 0.15 mg/kg s.c. alone, ** p < 0.01 vs saline): 6.9 ± 0.7

CNCCCN1c2ccccc2CCc2ccccc21 [desipramine]
effect on HACU [2]: no effect

CN(C)CCCN1c2ccccc2CCc2ccccc21 [imipramine]
effect on HACU [2]: no effect

Cn1c(-c2ccccc2)n[nH]c1=S [5-Phenyl-4-methyl-3H-1,2,4-triazole-3-thione]
Bmax ± SEM of [3H] hemicholinium-3 binding [3, 6]: 18.7 ± 3.2 fmol/mg Protein | % Increase in Bmax [3, 7]: 57% | Kd [3, 6]: 2.14 ± 0.7 nM

Cn1nc(-c2cccc(F)c2)n(C)c1=S [5-(3-Fluorophenyl)-2,4-dimethyl-3H-1,2,4-triazole-3-thione]
epileptiform activity in the hippocampal slice (hippocampal slice): did not produce the epileptiform activity | Number of errors (12 = chance response), T-maze ([1]; 1 mg/kg with scopolamine 0.15 mg/kg, * p < 0.05 vs saline): 5.0 ± 0.26 | reversal of scopolamine-induced memory deficit in the T-maze ([1]; 5 mg/kg): reverses the scopolamine-induced memory deficit | Number of errors (12 = chance response), T-maze ([1]; 5 mg/kg with scopolamine 0.15 mg/kg, + p < 0.05 vs scopolamine): 4.0 ± 0.8 | Number of errors (5 = chance response), 0-Second Delay ([4]; 1 mg/kg): 0.50 ± 0.26 | Number of errors (5 = chance response), 60-Second Delay ([4]; 1 mg/kg, * p < 0.05 vs 0 seconds delay): 4.42 ± 0.47 | Number of errors (5 = chance response), 0-Second Delay ([4]; 5 mg/kg): 0.67 ± 0.33 | Number of errors (5 = chance response), 60-Second Delay ([4]; 5 mg/kg, * p < 0.05 vs 0 seconds delay): 2.33 ± 0.50 | Number of errors (5 = chance response), 0-Second Delay ([4]; 10 mg/kg): 0.58 ± 0.19 | Number of errors (5 = chance response), 60-Second Delay ([4]; 10 mg/kg): 1.75 ± 0.43 | reversal of time dependent deficit in the T-maze ([4]; 60-second delay): effectively reverses the time dependent deficit | Bmax ± SEM of [3H] hemicholinium-3 binding [3, 8]: 20.3 ± 1.2 fmol/mg Protein | % Increase in Bmax ([3]; 1 mg/kg i.p., n = 4, vs saline (Bmax 9.7)): 109% | Bmax ± SEM of [3H] hemicholinium-3 binding [3, 9]: 15.2 ± 3.0 fmol/mg Protein | % Increase in Bmax ([3]; 2.5 mg/kg i.p., n = 4, vs saline (Bmax 9.7)): 57% | Kd [3, 8]: 3.8 ± 0.6 nM | Kd [3, 9]: 6.5 ± 1.8 nM

CCOC(=O)c1cc2c(cn1)[nH]c1ccccc12 [ethyl β-carboline-3-carboxylate]
epileptiform activity in the hippocampal slice (hippocampal slice; [10]): produced epileptiform activity | inverse agonist character (benzodiazepine receptor): full inverse agonists

CC(C)(CO)[C@@H](O)C(=O)NCCCC(=O)O [pantoyl-GABA]
effect on cortical or hippocampal HACU [2]: stimulate cortical or hippocampal HACU

CCOc1ccccc1OCC1CNCCO1 (stereo not drawn) [viloxazine]
effect on HACU [2]: no effect

CNC(=O)c1cc2c(cn1)[nH]c1ccccc12 [N-methyl-β-carboline-3-carboxamide]
epileptiform activity in the hippocampal slice (hippocampal slice): produced epileptiform activity | inverse agonist character (benzodiazepine receptor): partial inverse agonist

CC(=C(CCOC(=O)C(C)C)SSC(CCOC(=O)C(C)C)=C(C)N(C=O)Cc1cnc(C)nc1N)N(C=O)Cc1cnc(C)nc1N (stereo in doubt) [sulbutiamine]
performance in operant conditioning memory task (memory in mice): performance was enhanced | hippocampal high affinity choline uptake [5]: increased

Cn1nc(-c2ccccc2)n(C)c1=S [5-phenyl-2,4-dimethyl-3H-1,2,4-triazole-3-thione]
Bmax ± SEM of [3H] hemicholinium-3 binding [3, 11]: 19.0 ± 3.4 fmol/mg Protein | % Increase in Bmax ([3]; 5 mg/kg i.p., n = 7, vs saline (Bmax 11.9)): 60% | Kd [3, 11]: 2.8 ± 0.5 nM

CC(C)N(CCNC(=O)CN1CCCC1=O)C(C)C [pramiracetam]
effect on cortical or hippocampal HACU [2]: stimulate cortical or hippocampal HACU

CCc1c(C(=O)OC)ncc2[nH]c3cc(OC)c(OC)cc3c12 [methyl 6,7-dimethoxy-4-ethyl-β-carboline-3-carboxylate]
epileptiform activity in the hippocampal slice (hippocampal slice; [10]): produced epileptiform activity | inverse agonist character (benzodiazepine receptor): full inverse agonists

COC(=O)c1cc2c(cn1)[nH]c1ccccc12 [methyl β-carboline-3-carboxylate]
epileptiform activity in the hippocampal slice (hippocampal slice; [10]): produced epileptiform activity | inverse agonist character (benzodiazepine receptor): full inverse agonists

Cc1cc(-c2ccccc2)nnc1NCCN1CCOCC1 [minaprine]
effect on striatal, cortical and hippocampal HACU ([2]; 30 mg/kg acute dose): weak effect

CN(C)CCC=C1c2ccccc2CCc2ccccc21 [amitriptyline]
effect on HACU [2]: no effect

NC(=O)CN1CC(O)CC1=O (stereo not drawn) [oxiracetam]
effect on cortical or hippocampal HACU [2]: stimulate cortical or hippocampal HACU

Cn1nc(-c2cccc(C(F)(F)F)c2)n(C)c1=S [5-(3-Trifluoromethylphenyl)-2,4-dimethyl-3H-1,2,4-triazole-3-thione]
Bmax ± SEM of [3H] hemicholinium-3 binding [3, 6]: 16.0 ± 3.0 fmol/mg Protein | % Increase in Bmax [3, 7]: 35% | Kd [3, 6]: 1.5 ± 0.1 nM
